Measurements published in patent US9532519B2, “Plant growth regulator and use thereof” (Japan Science and Technology Agency, priority 2006, dated 2017).

Assays:
Format in all cases: in vivo
[1] = test system: eustoma; experiment: Effect on promoting growth of roots of eustoma; conditions: MS culture medium containing 1 mM-GSSG or GSH, grown 1 month, transferred to planter
Excerpt: In the planter, 2 parts of vermiculite, 1 part of The Kureha Ikubyou Baido soil, and 1 part of vermiculite were layered as a lower layer, a middle layer, and an upper layer, respectively, and the above plants were transferred thereto.

[2] = test system: strawberry (breed; Eminent garden series, Yokubari-ichigo kurenai (SUMIKA)); experiment: Effect of oxidized glutathione on growth of strawberry (number of runners); conditions: GSH-treated zone
[3] = test system: Arabidopsis; experiment: Influence of oxidized glutathione on growth of Arabidopsis; conditions: 5 mM H2O2 solution; 8 weeks after the sowing
Procedure: Specifically, the plants were cultivated with two or three plants in one pod of approximately 65 in width, 65 in depth, and 50 in height, and an appropriate amount of a treatment solution was supplied. The effect of the treatment was evaluated with respect to the number of rosette leaves, the speed of a growing flower stalk, the number of flowers, and the number of seeds.

Structure (SMILES)	growth of roots vs plants not treated with GSSG [1]	increase in the number of runners relative to the increase of the GSSG-treated zone [2]	number of runners per one stock vs Cont zone [2]	state of plant (life of plant) [3]
N[C@@H](CCC(=O)N[C@@H](CS)C(=O)NCC(=O)O)C(=O)O [GSH, reduced glutathione]	subdued growth of roots	approximately one third	more number of runners per one stock than a Cont zone	
OO [H2O2, reference compound]				withering
